Laboratory results as given in patent US20260191793A1, “HBV SPECIFIC EXOSOMES AND USES THEREOF” (priority 2022, published 2026).

Assays:
HBV in HepG2-NTCP cells = test: Infection of HepG2-NTCP cells with supernatants of gRNA/Cas9-transfected HepDE19 cells (infectious HBV particles); type: cell-based, Hepatitis B virus (HBV); details: HepG2-NTCP infected with supernatants of transfected HepDE19 cells, vs supernatants of gRNAc-transfected cells, qPCR
Protocol: To characterize the effects of synthetic gRNA5/Cas9 and gRNA9/Cas9 on HBV replication, the ability of HBV particles derived from HepDE19 cells that have been transfected with gRNA5, gRNA9, or gRNAc RNPs for 3 days to infect HepG2-NTCP cells was assessed. HepG2-NTCP cells were infected for 6 days with supernatants harvested from HepDE19 cells. Genomic DNA was isolated from HepG2-NTCP cells and used for qPCR quantification of HBV DNA.
HBV infectious particles were harvested from the supernatants of gRNA/Cas9-treated HepDE19 cells and used for the infection of HepG2-NTCP cells following a previously published method. Briefly, the supernatants of gRNA RNP-treated HepDE19 cells were harvested and concentrated using a PEG concentration kit (Cat #ab102538, Abcam, Waltham, MA). For HBV infection, 2.5×10^5 HepG2-NTCP cells were seeded in a 12-well plate and mixed with 10 μl concentrated HBV supernatants in 1 ml hepatocyte maintenance medium (HMM) (with 8% PEG8000 and 5% DMSO) at 37° C. for 16 h. The culture media were changed daily with fresh HMM. After 8 days, the cells were harvested and HBV DNA and cccDNA levels were determined as described below.
Total and protein-free HBV DNAs were extracted from whole cell lysate using the Hirt DNA method according to a previously published protocol. For HBV cccDNA analysis, the protein-free DNA was treated with 10 units of T5 exonuclease (NEB) at 37° C. for 30 min, followed by 95° C. for 5 min, and diluted 4-fold with nuclease-free water. Next, the cccDNA was cleaned with a DNA clean and concentrator kit (ZYMO Research, Irvine, CA) and used for PCR. HBV total DNA and cccDNA were analyzed by real-time PCR using a TaqMan PCR assay. The primers and probe used to amplify HBV total DNA were: HBV total DNA forward: 5′-[…]-3′ (SEQ ID NO: 58), reverse 5′-[…]-3′ (SEQ ID NO: 59), and internal probe: 5′-FAM-[…]-TAMRA-3′ (SEQ ID NO: 60). The primers and probe used to amplify HBV cccDNA (Genotype D, subtype ayw) were: forward: 5′-[…]-3′ (SEQ ID NO: 61), reverse 5′-[…]-3′ (SEQ ID NO: 62), and internal probe 5′-FAM-[…]-TAMRA-3′ (SEQ ID NO: 63). The PCR reactions were performed in 20 μl volumes and contained 2 μl DNA. The PCR conditions were: 95° C. for 10 min, followed by 45 cycles of 95° C. for 15 s and 64° C. for 30 s. The DNA levels were determined by the […] method and values were normalized to the control group.
Sodium taurocholate cotransporting polypeptide (NTCP) is a functional receptor for human HBV. The human hepatoma cell line HepG2 is not susceptible to HBV infection due to lack of NTCP; however, HepG2 cells transfected with NTCP expression plasmids (HepG2-NTCP) are susceptible to natural HBV infection. To further characterize the inhibitory effects of the synthetic gRNA/Cas9 RNPs on HBV replication, HepG2-NTCP cells were incubated with supernatants collected from gRNA/Cas9 RNP-transfected HepDE19 cell culture (after 4 days). Genomic DNA was isolated from HepG2-NTCP cells on day 8 after HBV infection and used for the assessment of HBV replication.

HBV cccDNA = test: HBV-infected HepG2-NTCP cells incubated with exosomes packaged with gRNA/Cas9 RNPs, HBV cccDNA; type: cell-based, Hepatitis B virus (HBV); details: delivery by engineered exosomes, 3 days (1×10^8 particles packaged with 40 μM gRNA/Cas9 RNPs)
Protocol: HepG2-NTCP cells were infected for 6 days with the supernatants of HepDE19 cells. Next, HepG2-NTCP cells were transfected for 3 days with gRNA5, gRNA9, gRNA5+gRNA9, or gRNAc RNPs (FIG. 4A) or incubated with exosomes carrying gRNA5, gRNA9, gRNA5+gRNA9, or gRNAc RNPs (1×10^8 particles packaged with 40 μM gRNA/Cas9 RNPs) (FIG. 4B), followed by measuring HBV cccDNA.
To test whether the synthetic gRNA/Cas9 can reduce newly formed HBV cccDNA in HepG2-NTCP cells, the cells with HBV particle-containing supernatants from HepDE19 cells (supernatants harvested 6 days after culture in Tet-free media) were infected. The HepG2-NTCP cells were infected with HBV particles for 6 days and then transfected with gRNA5, gRNA9, gRNA5 plus gRNA9 (in combination), or gRNAc RNPs for 3 days, followed by measuring HBV cccDNA. In another experiment, the infected HepG2-NTCP cells were incubated for 3 days with exosomes packaged with gRNA5, gRNA9, gRNA5 plus gRNA9 (in combination), or gRNAc RNPs, followed by measuring HBV cccDNA.

HepDE19 cells = test: Cytotoxicity, cell viability by MTT assay; type: cell-based, human; details: for cell viability in the presence of TNFα: Tet-free medium, TNFα (10 ng/ml); for cell viability (MTT): with or without Tet-free medium, 24 h, vs non-transfected (NT) control
Protocol: The MTT assay was used to determine metabolic activity and cell viability as an indicator of cellular cytotoxicity. Twenty-four hours after gRNA/Cas9 transfection, the cells were cultured in a Tet-free medium for an additional 24 h. For measuring cell proliferation, the cells were cultured in the Tet-free medium for an additional 3 days in a 96-well plate. The culture medium (100 μl) was changed and MTT reagent (0.5 mg/ml) was added at 37° C. for 4 h, followed by measuring the absorbance at 550-690 nm using a spectrophotometer (BioTek SYNERGY H1).
NAD (P) H-dependent cellular oxidoreductase enzymes reduce the tetrazolium MTT (3-(4,5-Dimethylthiazol 2-yl)-2,5-diphenyltetrazolium bromide) salt into insoluble formazan, which indicates the overall survival and metabolic activity of a living cell. To determine whether gRNA5/Cas9 or gRNA9/Cas9 exert any cytotoxic effects on HepDE19 cells, cell viability after transfection with gRNA5 or gRNA9 in the presence or absence of Tet-free medium (for HBV induction) for 24 h was measured using the MTT assay. […] Since HBV itself is not a direct cytopathic pathogen but can induce cell injury via immune-mediated mechanisms, the viability of transfected and non-transfected HepDE19 cells cultured in a Tet-free medium in the presence of TNFα, which can induce apoptotic cell death, was observed. […] Moreover, flow cytometry analysis was performed to detect the cell surface apoptotic marker annexin V and the loss of the plasma membrane integrity (measured by up taking 7-ADD). Cell apoptosis was then evaluated by measuring the Av and 7ADD levels in gRNA-transfected HepDE19 cells with or without Tet-free medium. No significant differences in cell apoptosis among the different treatments were observed (FIG. 16C). Finally, the proliferative ability of HepDE19 cells with or without gRNA transfection for 3 days was assessed, using the MTT assay. No significant differences in cell proliferation were found (FIG. 16D).

| Sequence | HBV DNA in HepG2-NTCP cells (HBV in HepG2-NTCP cells) | HBV cccDNA in HepG2-NTCP cells (HBV in HepG2-NTCP cells) | HBV DNA in HepG2-NTCP cells (HBV in HepG2-NTCP cells; listed as gRNA9/Cas9) | HBV cccDNA in HepG2-NTCP cells (HBV in HepG2-NTCP cells; listed as gRNA9/Cas9) | HBV cccDNA levels (HBV cccDNA) | cytotoxicity to hepatocytes (overall conclusion) (HepDE19 cells) | cell viability in the presence of TNFα (HepDE19 cells) | cell viability (MTT) (HepDE19 cells) | cell viability (MTT) (HepDE19 cells; listed as gRNA9/Cas9) | HBV DNA in HepG2-NTCP cells (HBV in HepG2-NTCP cells; listed as gRNA5/Cas9) | HBV cccDNA in HepG2-NTCP cells (HBV in HepG2-NTCP cells; listed as gRNA5/Cas9) | cell viability (MTT) (HepDE19 cells; listed as gRNA5/Cas9) |
| --- | --- | --- | --- | --- | --- | --- | --- | --- | --- | --- | --- | --- |
| GGTCTCCATGCGACGTGCAGNGG [gRNA9] | significantly lower | remarkably lower | significantly fewer copies | significantly fewer copies | significantly reduced | not cytotoxic | No cytotoxic effects | no significant differences in the viability | no differences in the viability | – | – | – |
| GTTATCGCTGGATGTGTCTGNGG (guide GUUAUCGCUGGAUGUGUCUGNGG; complexed with Cas9 protein, chemistry not fully specified) [gRNA5, tested as synthetic gRNA/Cas9 RNP] | significantly lower | remarkably lower | – | – | significantly reduced | not cytotoxic | No cytotoxic effects | no significant differences in the viability | – | significantly fewer copies | significantly fewer copies | no differences in the viability |
